Data on 1 compound can be found in BindingDB's records for PubMed 35324195 (Sichuan University, 2022).

The nature of this assay: Inhibition of IL-17 in human PBMC.

pIC50: −log10 of the molar value.

The pIC50 is the IC50 on a negative log10 scale, so that one unit is a factor of ten. `COc1cc(OC)c2c(=O)[nH]c(-c3cc(C)c(OCCN4CCCC4)c(C)c3)nc2c1` had a pIC50 of 5.89.
